The values below come from patent publication US6500858B2, “Taxoid anti-tumor agents and pharmaceutical compositions thereof” (The Research Foundation of the state University of New York, priority 1994, dated 2002).

Values joined by “and” are separate entries in the source; they are usually repeats but may differ in a detail not shown here. Equal values may be shown once. Read-outs that look alike come from different tables or passages of the source.

What is called IC50 is the midpoint of a concentration-inhibition curve. A word on the T/C: it is the result in the treated group divided by that in the control group, in per cent.

In data set [1] the test system is LCC6-WT: human breast carcinoma. Nature of the data set: cytotoxicity assay of second generation taxoids. To be noted: 72 h drug exposure; read-out: LCC6-WT IC50. Type of data set: cell-based. How it is done:
A cytotoxicity assay of these new second generation taxoids was performed on human breast cancer cell lines, LCC6-WT and LCC-MDR, and selected taxoids were also assayed for their potency against MCF7 and MCF7-R (Skehan, P., et al., J. Nat. Cancer Inst. 1990, 82, 1107-1112).

The next data set deals with A121 (ovarian carcinoma). Nature of the data set: tumor cell growth inhibition (SRB, 72 h drug exposure). In kind it is cell-based, human. How it is done:
(§1) Lower numbers indicate higher potency. […] The data represent the mean values of at least three separate experiments. Lower numbers indicate greater activity.
(§2) Assessment of cell growth inhibition was determined according to the methods of Skehan et al., J. Nat. Cancer Inst. […] Briefly, cells were plated between 400 and 1200 cells/well in 96 well plates and incubated at 37° C. for 15-18 h prior to drug addition to allow attachment of cells. […] After a 72 h incubation, […] of ice-cold 50% TCA was added to each well and incubated for 1 h at 4° C. Plates were then washed 5 times with tap water to remove TCA, low-molecular-weight metabolites and serum proteins. Sulforhodamine B (SRB) (0.4%, […]) was added to each well. Following a 5 min incubation at room temperature, plates were rinsed 5 times with 0.1% acetic acid and air dried. […] Optical density was measured at 570 nm.

The subject of data set [2] is A549 (non-small cell lung carcinoma). Described as above. In kind it is cell-based, human. The procedure: as §1, §2
Another data set concerns HT-29 (colon carcinoma). Described as above. Type of data set: cell-based, human. How it is done:
as §1, §2

A further data set deals with MCF7 (mammary carcinoma). The data set is described as above. In kind it is cell-based, human. As to conditions: for IC50: 72 h drug exposure. How it is done:
as §1, §2

The test system of another data set is B16 melanoma. The data set is described as follows: intravenous administration to mice bearing B16 melanoma. Type of data set: in vivo, B6D2F1 female mice. The arrangement: key to Responses (activity rating): A = active; HA = highly active. The procedure:
(§3) The efficacy of the test compounds on solid tumors in vivo was determined experimentally according to the following general experimental protocol:
(§4) The mice subjected to the experiment were subcutaneously grafted bilaterally with 30 to 60 mg of a tumor fragment on day zero. Mice bearing tumors were mixed before being subjected to the various treatments and controls. In the case of treatment of advanced tumors, tumors were allowed to develop to the desired size, and mice having insufficiently developed tumors were eliminated. The selected mice were distributed at random to undergo the treatments and controls. Mice not bearing tumors may also be subjected to the same treatments as the tumor-bearing mice in order to be able to dissociate the toxic effect from the specific effect on the tumor. Chemotherapy generally began from 3 to 22 days after grafting, depending on the type of tumor, and the mice were observed every day. The different mice groups were weighed 3 or 4 times a week until the maximum weight loss was attained (nadir), and the groups were then weighed at least once a week until the end of the trial.
(§5) The tumors were measured 2 or 3 times a week until the tumor reached approximately 2 grams, or until the animal died, if this occurred before the tumor reached 2 grams. The mice were autopsied when sacrificed.
(§6) The antitumor activity was determined in accordance with different parameters recorded such as dose (mg/kg), mode of administration, time of administration, cytotoxicity, toxicity and log10 cell kill.
SB-T-1213, SB-T-121303, SB-T-121304 and SB-T-1250 were evaluated in B6D2F1 female mice bearing B16 melanoma. The general experimental protocol was as described above. The compounds evaluated were administered intravenously (iv) on an intermittent schedule on days 3, 5, and 7 post tumor implantation. With the exception of SB-T-1250, solutions of the compounds for administration were prepared in 5% ethanol, 5% polysorbate 80, and 90% glucose 5% water.

The test system of data set [3] is docetaxel-resistant melanoma, B16/TXT. Nature of the data set: intravenous administration to B16/TXT melanoma-bearing mice. In kind it is in vivo, B6D2F1 female mice. As to conditions: days 3, 5, 7. How it is done: as §3, §4, §5, §6
SB-T-1213, SB-T-121303, SB-T-121304 and SB-T-1250 were evaluated in B6D2F1 female mice bearing the docetaxel-resistant melanoma, B16/TXT. The general experimental protocol was as described above. The compounds evaluated were administered intravenously on an intermittent schedule on days 3, 5, and 7 post tumor implantation.

In data set [4] the test system is MCF7-R (mammary carcinoma cells 180-fold resistant to adriamycin). The data set is described as follows: tumor cell growth inhibition (SRB, 72 h drug exposure). In kind it is cell-based, human. To be noted: for IC50: 72 h drug exposure. How it is done: as §1, §2

Turning to “3′-Dephenyl-3′-(2-methylprop-1-enyl)-2-debenzoyl-2-(3-methoxybenzoyl)-10-cyclopropyldocetaxel [Taxoid 7m]”, the IC50 in data set [1] stood at 1 nM.
As for `CC(=O)O[C@@]12CO[C@@H]1C[C@H](O)[C@@]1(C)C(=O)[C@H](O)C3=C(C)[C@@H](OC(=O)[C@H](O)[C@H](CC(C)(C)C)NC(=O)OC(C)(C)C)C[C@@](O)([C@@H](OC(=O)c4ccccc4)[C@H]21)C3(C)C` [3′-dephenyl-3′-neopentyldocetaxel], the cytotoxicity in words entry (in the data set with A121 (ovarian carcinoma) (A121 human ovarian); in data set [2] (A549 human non-small cell lung); with HT-29 (colon carcinoma) (HT-29 human colon); in the data set with MCF7 (mammary carcinoma) (MCF7 human breast)) was “virtually not cytotoxic” throughout.
In the case of `CCC(=O)O[C@H]1C(=O)[C@@]2(C)[C@H]([C@H](OC(=O)c3cccc(OC)c3)[C@]3(O)C[C@H](OC(=O)[C@H](O)[C@H](C=C(C)C)NC(=O)OC(C)(C)C)C(C)=C1C3(C)C)[C@]1(OC(C)=O)CO[C@@H]1C[C@@H]2O` [SB-T-121303], the “Responses (activity rating)” value in the data set on B16 melanoma (1.9 mg/kg/adm.) is “A”. Also, the T/C turned out to be 12% in the data set with B16 melanoma (1.9 mg/kg/adm., days 3, 5, 7) and 94% in data set [3] (0.7 mg/kg/adm.). Further, the log10 cell kill with B16 melanoma (1.9 mg/kg/adm., days 3, 5, 7) stood at 1.7. Also, in the data set on B16 melanoma (1.9 mg/kg/adm., days 3, 5, 7, 1.9 mg/kg), the “% body weight loss at nadir” value is 16.9% and 16.9 (13) %. In addition, the “drug related deaths (DD)” value with B16 melanoma (3.2 mg/kg/adm., days 3, 5, 7) is on record as 100%; in data set [3] (1.9 mg/kg/adm.), “⅕”; in data set [3] (3.2 mg/kg/adm.) it was 100%. The highest nontoxic dose with B16 melanoma (days 3, 5, 7) was determined as 1.9 mg/kg/adm; in data set [3] it was 1.2 mg/kg/adm.
Consider `CCC(=O)OC1C(=O)C2(C)C(O)CC3OCC3(OC(C)=O)C2C(OC(=O)c2cccc(F)c2)C2(O)CC(OC(=O)C(O)C(CC(C)C)NC(=O)OC(C)(C)C)C(C)=C1C2(C)C` (stereo not drawn) [Taxoid 7a, 3′-Dephenyl-3′-(2-methylpropyl)-2-debenzoyl-2-(3-fluorobenzoyl)-10-propanoyldocetaxel], for which the 50% inhibitory concentration (IC50) in data set [1] stood at 0.4 nM.
On the same count and under the same terms, for `CCC(=O)OC1C(=O)C2(C)C(O)CC3OCC3(OC(C)=O)C2C(OC(=O)c2cccc(F)c2)C2(O)CC(OC(=O)C(O)C(C=C(C)C)NC(=O)OC(C)(C)C)C(C)=C1C2(C)C` (stereo not drawn) [Taxoid 7b, 3′-Dephenyl-3′-(2-methylprop-1-enyl)-2-debenzoyl-2-(3-fluorobenzoyl)-10-propanoyldocetaxel] the value was 0.5 nM; for `CCC(=O)OC1C(=O)C2(C)C(O)CC3OCC3(OC(C)=O)C2C(OC(=O)c2cccc(Cl)c2)C2(O)CC(OC(=O)C(O)C(C=C(C)C)NC(=O)OC(C)(C)C)C(C)=C1C2(C)C` (stereo not drawn) [Taxoid 7d, 3′-Dephenyl-3′-(2-methylprop-1-enyl)-2-debenzoyl-2-(3-chlorobenzoyl)-10-propanoyldocetaxel], 0.8 nM.
As for `CCC(=O)OC1C(=O)C2(C)C(O)CC3OCC3(OC(C)=O)C2C(OC(=O)c2cccc(OC)c2)C2(O)CC(OC(=O)C(O)C(NC(=O)OC(C)(C)C)C(F)F)C(C)=C1C2(C)C` (stereo not drawn) [Taxoid 7g, 3′-Dephenyl-3′-difluoromethyl-2-debenzoyl-2-(3-methoxybenzoyl)-10-propanoyldocetaxel], the IC50 with MCF7 (mammary carcinoma) (Table 3, read-out: MCF7 IC50) turned out to be 0.4 nM; in data set [4] (Table 3) it was 4.3 nM; in data set [1], 1.5 nM.
The matching figures for `C=CCCC(NC(=O)OC(C)(C)C)C(O)C(=O)OC1CC2(O)C(OC(=O)c3cccc(OC)c3)C3C4(OC(C)=O)COC4CC(O)C3(C)C(=O)C(OC(=O)CC)C(=C1C)C2(C)C` (stereo not drawn) [Taxoid 7h, 3′-Dephenyl-3′-(3-butenyl)-2-debenzoyl-2-(3-methoxybenzoyl)-10-propanoyldocetaxel]: 2 nM, 7.7 nM and 0.9 nM.
For `C=CCC(NC(=O)OC(C)(C)C)C(O)C(=O)OC1CC2(O)C(OC(=O)c3cccc(OC)c3)C3C4(OC(C)=O)COC4CC(O)C3(C)C(=O)C(OC(=O)CC)C(=C1C)C2(C)C` (stereo not drawn) [Taxoid 7i, 3′-Dephenyl-3′-(2-propenyl)-2-debenzoyl-2-(3-methoxybenzoyl)-10-propanoyldocetaxel] the same measures were 0.8 nM, 8.7 nM and 1.2 nM.
For `CCC(=O)OC1C(=O)C2(C)C(O)CC3OCC3(OC(C)=O)C2C(OC(=O)c2cccc(OC)c2)C2(O)CC(OC(=O)C(O)C(NC(=O)OC(C)(C)C)[C@H]3CC3(C)C)C(C)=C1C2(C)C` (stereo partly drawn) [Taxoid 7j, 3′-Dephenyl-3′-[(S)-2,2-dimethylcyclopropyl]-2-debenzoyl-2-(3-methoxybenzoyl)-10-propanoyldocetaxel] the same measures were 0.6 nM, 1.5 nM and 0.48 nM.
In the case of `C/C=C/C(NC(=O)OC(C)(C)C)C(O)C(=O)OC1CC2(O)C(OC(=O)c3cccc(OC)c3)C3C4(OC(C)=O)COC4CC(O)C3(C)C(=O)C(OC(=O)CC)C(=C1C)C2(C)C` (stereo not drawn) [Taxoid 7k, 3′-Dephenyl-3′-[(E)-prop-1-enyl]-2-debenzoyl-2-(3-methoxybenzoyl)-10-propanoyldocetaxel], in data set [1], the IC50 was found to be 1.2 nM.
For `COc1cccc(C(=O)OC2C3C4(OC(C)=O)COC4CC(O)C3(C)C(=O)C(OC(C)=O)C3=C(C)C(OC(=O)C(O)C(C=C(C)C)NC(=O)OC(C)(C)C)CC2(O)C3(C)C)c1` (stereo not drawn) [Taxoid 7l, 3′-Dephenyl-3′-(2-methylprop-1-enyl)-2-debenzoyl-2-(3-methoxybenzoyl)-10-acetyldocetaxel], the IC50 in the data set on MCF7 (mammary carcinoma) (Table 3, read-out: MCF7 IC50) worked out at 0.8 nM; in data set [4] (Table 3) it was 2.3 nM; in data set [1] it was 0.6 nM.
For `CCC(=O)OC1C(=O)C2(C)C(O)CC3OCC3(OC(C)=O)C2C(OC(=O)c2cccc(N=[N+]=[N-])c2)C2(O)CC(OC(=O)C(O)C(CC(C)C)NC(=O)OC(C)(C)C)C(C)=C1C2(C)C` (stereo not drawn) [Taxoid 7n, 3′-Dephenyl-3′-(2-methylpropyl)-2-debenzoyl-2-(3-azidobenzoyl)-10-propanoyldocetaxel] the same measures were 1 nM, 2.1 nM and 1.1 nM.
In the case of `C=Cc1cccc(C(=O)OC2C3C4(OC(C)=O)COC4CC(O)C3(C)C(=O)C(OC(=O)CC)C3=C(C)C(OC(=O)C(O)C(C=C(C)C)NC(=O)OC(C)(C)C)CC2(O)C3(C)C)c1` (stereo not drawn) [Taxoid 7p, 3′-Dephenyl-3′-(2-methylprop-1-enyl)-2-debenzoyl-2-(3-ethenylbenzoyl)-10-propanoyldocetaxel], in data set [1], the IC50 was 2.9 nM.
For the compound `CC(=O)OC1C(=O)C2(C)C(O)CC3OCC3(OC(C)=O)C2C(OC(=O)c2cccc(C)c2)C2(O)CC(OC(=O)C(O)C(C=C(C)C)NC(=O)OC(C)(C)C)C(C)=C1C2(C)C` (stereo not drawn) [Taxoid 7q, 3′-Dephenyl-3′-(2-methylprop-1-enyl)-2-debenzoyl-2-(3-methylbenzoyl)-10-acetyldocetaxel], the IC50 with MCF7 (mammary carcinoma) (Table 3, read-out: MCF7 IC50) is 0.8 nM; in data set [4] (Table 3), 5 nM; in data set [1], 1.5 nM.
Turning to `CC=CC(NC(=O)OC(C)(C)C)C(O)C(=O)OC1CC2(O)C(OC(=O)c3ccccc3)C3C4(OC(C)=O)COC4CC(O)C3(C)C(=O)C(OC(C)=O)C(=C1C)C2(C)C` (stereo not drawn) [Taxoid Ia, 3′-dephenyl-3′-(1-propenyl)-10-acetyldocetaxel], the IC50 was found to be 0.9 nM in the data set on A121 (ovarian carcinoma) (72 h drug exposure); 0.54 nM in data set [2] (72 h drug exposure, read-out: A549 (NSCLC) IC50); 0.76 nM with HT-29 (colon carcinoma) (72 h drug exposure); 0.51 nM in the data set on MCF7 (mammary carcinoma) (Table 1, read-out: MCF7 (breast) IC50); 14 nM in data set [4] (Table 1). In addition, in data set [4] (MCF7-R), the “times better activity than docetaxel” value is reported as 17 times. Also, in data set [4] (MCF7-R), the “times better activity than paclitaxel” value is reported as 21 times.
